Like-named read-outs stand apart in the source and are kept apart here.
Tests used:
[1] = target: purified recombinant HIV RT (Human immunodeficiency virus type 1 group M subtype B, UniProt P03366); assay: biochemical
HIV-1 strain HTLVIIIB = assay: anti-HIV activity: inhibition of replication of HIV-1 strain HTLVIIIB in PBMC; format: cell-based; details: for IC50: read-out: IC50 [HTLVHIB]; for inhibition at 1 µM: at concentrations ≧1 μM
cytotoxicity (CC50) = format: cell-based; details: CC50 values
[2] = Human immunodeficiency virus 1, PBMC
[3] = Human immunodeficiency virus 1, peripheral blood mononuclear cells (PBMC) from healthy volunteer donors

For S=C(NCCc1ccc(Cl)cc1)Nc1ccc(Br)cn1 [V, reference compound], the IC50 [1] was 2.5 µM.
Oc1ccc(CCNC(=S)Nc2ccc(Br)cn2)cc1 [VII, reference compound] gave an IC50 [1] of 87.7 µM, an IC50 (HIV-1 strain HTLVIIIB; [2]) of 3.07 µM and a CC (cytotoxicity (CC50)) of over 100 µM.
With S=C(NCCOc1ccccc1)Nc1ccc(Cl)cn1 [III, N -[2-(Phenoxy)ethyl]-N′-[2-(5-chloropyridyl)]thiourea] the IC50 [1] was 1.5 µM, the inhibition at 1 µM (HIV-1 strain HTLVIIIB; [2]) was 100% and the IC50 (HIV-1 strain HTLVIIIB; [3]) was 0.004 µM. The CC (cytotoxicity (CC50)) was over 100 µM.
Compound S=C(NCCOc1ccccc1)Nc1ccccn1 [II, N-[2-(Phenoxy)ethyl]-N′-[2-(pyridyl)]thiourea] has an IC50 [1] of 10.1 µM, an inhibition at 1 µM (HIV-1 strain HTLVIIIB; [2]) of 100% and an IC50 (HIV-1 strain HTLVIIIB; [3]) of 0.005 µM. It also gave a CC (cytotoxicity (CC50)) of 55 µM.
For S=C(NCCOc1ccccc1)Nc1ccc(Br)cn1 [IV, N-[2-(Phenoxy)ethyl]-N′-[2-(5-bromopyridyl)]thiourea], the IC50 [1] was 1.5 µM, the inhibition at 1 µM (HIV-1 strain HTLVIIIB; [2]) was 100% and the IC50 (HIV-1 strain HTLVIIIB; [3]) was 0.005 µM. For the same compound, the CC (cytotoxicity (CC50)) was 92 µM and the melting point was 162 to 163 °C.

From US6727265B2, “Phenoxyethyl-thiourea-pyridine compounds and their use for treatment of HIV-infections” (Parker Hughes Institute, priority 2000, dated 2004)
